# Test results published in ChEMBL document CHEMBL4118158, “Lactones from the pericarps of Litsea japonica and their anti-inflammatory activities” (Bioorg Med Chem Lett, 2018).
# Calls of active or inactive are those of the source. The rule behind the calls is not given here.
# How the values were obtained:
# RAW264.7 [1] = experiment: Anti-inflammatory activity in mouse RAW264.7 cells assessed as reduction in LPS-induced TNFalpha mRNA expression preincubated for 30 mins followed by LPS stimulation measured after 8 hrs by real-time qPCR method; format: functional, cell-based
# RAW264.7 [2] = experiment: Anti-inflammatory activity in mouse RAW264.7 cells assessed as reduction in COX2 protein expression at 30 uM preincubated for 30 mins before LPS stimulation for 24 hrs by Western blot analysis; format: functional, cell-based
# RAW264.7 [3] = experiment: Cytotoxicity against mouse RAW264.7 cells at 30 uM after 24 hrs in absence of LPS by MTT assay; format: cell-based; conditions: raw264.7, 24 h
# RAW264.7 [4] = experiment: Anti-inflammatory activity in mouse RAW264.7 cells assessed as reduction in LPS-induced COX2 mRNA expression preincubated for 30 mins followed by LPS stimulation measured after 8 hrs by real-time qPCR method; format: functional, cell-based
# RAW264.7 [5] = experiment: Anti-inflammatory activity in mouse RAW264.7 cells assessed as reduction in LPS-induced iNOS mRNA expression preincubated for 30 mins followed by LPS stimulation measured after 8 hrs by real-time qPCR method; format: functional, cell-based
# RAW264.7 [6] = experiment: Anti-inflammatory activity in mouse RAW264.7 cells assessed as reduction in LPS-induced IL6 mRNA expression preincubated for 30 mins followed by LPS stimulation measured after 8 hrs by real-time qPCR method; format: functional, cell-based
# RAW264.7 [7] = experiment: Cytotoxicity against mouse RAW264.7 cells at 30 uM after 24 hrs in presence of LPS by MTT assay; format: cell-based; conditions: raw264.7, 24 h
# RAW264.7 [8] = experiment: Anti-inflammatory activity in mouse RAW264.7 cells assessed as reduction in iNOS protein expression preincubated for 30 mins before LPS stimulation for 24 hrs by Western blot analysis; format: functional, cell-based
# RAW264.7 [9] = experiment: Anti-inflammatory activity in mouse RAW264.7 cells assessed as inhibition of LPS-induced nitric oxide production after 24 hrs by Griess method; format: functional, cell-based; conditions: RAW264.7, 24 h
SMILES,IC50 (RAW264.7 [9]) [µM],Activity (RAW264.7 [1]),Activity (RAW264.7 [2]),Activity (RAW264.7 [3]),Activity (RAW264.7 [4]),Activity (RAW264.7 [5]),Activity (RAW264.7 [6]),Activity (RAW264.7 [7]),Activity (RAW264.7 [8])
C=CCCCCCCCCC/C=C1/C(=O)O[C@H](C)[C@H]1O,3.1,Dose-dependent effect,Active,Non-Toxic,Dose-dependent effect,Dose-dependent effect,Dose-dependent effect,Non-Toxic,Dose-dependent effect
CCCCCCCCCCCC/C=C/C1=CC(C)OC1=O (centres undefined),> 30,–,–,Non-Toxic,–,–,–,Non-Toxic,–
C=CCCCCCCCC/C=C/C1=CC(C)OC1=O (centres undefined),> 30,–,–,Non-Toxic,–,–,–,Non-Toxic,–
C=CCCCCCCCCC/C=C1/C(=O)O[C@@H](C)[C@H]1O,3,–,–,Non-Toxic,–,–,–,Non-Toxic,–
CCCCCCCCCCC/C=C1/C(=O)O[C@H](C)[C@H]1O,2.9,–,–,Non-Toxic,–,–,–,Non-Toxic,–
C=CCCCCCCCC/C=C/[C@H]1C(=O)O[C@@H](C)[C@H]1O,> 30,–,–,Non-Toxic,–,–,–,Non-Toxic,–
C=CCCCCCCCCC/C=C1\C(=O)O[C@H](C)[C@H]1O,4.5,–,–,Non-Toxic,–,–,–,Non-Toxic,Dose-dependent effect
C#CCCCCCCCC/C=C/C1=CC(C)OC1=O (centres undefined),> 30,–,–,Non-Toxic,–,–,–,Non-Toxic,–
C#CCCCCCCCCC/C=C1\C(=O)O[C@H](C)[C@H]1O,12.8,–,–,Non-Toxic,–,–,–,Non-Toxic,Dose-dependent effect
CC1=C(O)C(=O)C=C2C1=CC=C1[C@@]2(C)CC[C@@]2(C)[C@@H]3C[C@](C)(C(=O)O)CC[C@]3(C)CC[C@]12C [CELASTROL],1,–,–,–,–,–,–,–,–
C#CCCCCCCCC/C=C/[C@H]1C(=O)O[C@@H](C)[C@H]1O [LITSEALACTONE B],> 30,–,–,Non-Toxic,–,–,–,Non-Toxic,–
CCCCC/C=C\C/C=C\CCCCC/C=C1/C(=O)O[C@H](C)[C@H]1O,4.4,–,Active,Non-Toxic,–,–,–,Non-Toxic,Dose-dependent effect
C=C/C=C/CCCCCCCCC/C=C1/C(=O)O[C@H](C)[C@H]1O,5.8,–,Active,Non-Toxic,–,–,–,Non-Toxic,Dose-dependent effect

# More lines, main results first:
IC50 (RAW264.7 [9]) [µM],SMILES,Activity (RAW264.7 [1]),Activity (RAW264.7 [2]),Activity (RAW264.7 [3]),Activity (RAW264.7 [4]),Activity (RAW264.7 [5]),Activity (RAW264.7 [6]),Activity (RAW264.7 [7]),Activity (RAW264.7 [8])
> 30,CCCCC/C=C/C/C=C/CCCC/C=C/C1=CC(C)OC1=O (centres undefined),–,–,Non-Toxic,–,–,–,Non-Toxic,–
6.2,C#CCCCCCCCCC/C=C1/C(=O)O[C@H](C)[C@H]1O,–,Active,Non-Toxic,–,–,–,Non-Toxic,Dose-dependent effect
2.5,CC/C=C/CCCCCCCCC/C=C1/C(=O)O[C@H](C)[C@H]1O,–,–,Non-Toxic,–,–,–,Non-Toxic,–
14,C=CCCCCCCCC/C=C/[C@H]1C(=O)O[C@H](C)[C@@H]1O,–,–,Non-Toxic,–,–,–,Non-Toxic,–
> 30,CCCCCCCCCC/C=C/C1=CC(C)OC1=O (centres undefined),–,–,Non-Toxic,–,–,–,Non-Toxic,–
> 30,C=C/C=C/CCCCCCCC/C=C/C1=CC(C)OC1=O (centres undefined),–,–,Non-Toxic,–,–,–,Non-Toxic,–
